The text below walks through data of patent US8987217B2, “Modified saponins for the treatment of fungal infections” (The General Hospital Corporation, priority 2010, dated 2015).

In series [1] the test system is C. elegans. Kind of series: toxicity to the nematode in dose response experiments. The following applies: dose response experiments, higher concentrations. An excerpt: This assay allows simultaneous assessment of a compound's potential toxicity and the ability to promote the survival of the nematode in the presence of C. albicans, including modes of action not traditionally considered in antifungal assays such as impeding a fungal virulence factor or promoting host immune response. We performed a screen of 2,560 natural products representing a fraction of the Analyiticon Discovery compound collection (ac-discovery.com) housed at the Broad Institute of Harvard and MIT (Cambridge, Mass.). […] These natural products identified in the primary screen were retested and confirmed (FIG. 1; Table 1). […] Moreover, although the antifungal effects of some of these saponins have been reported (Sata et al., Biosci Biotechnol Biochem, 62:1904-1911 (1998); Ohtani et al., Phytochem, 33:83-86 (1993)), their efficacy against Candida spp. has not been studied.
Representatives of the saponins family are able to disrupt cellular membranes and the lytic activity on erythrocytes has been used as an assay for some saponins Francis et al., British Journal of Nutrition, 88:587-605 (2002)). This property is derived from the affinity of some saponins for binding cholesterol forming insoluble pores composed of the sterol and saponins (Bangham et al., Nature, 196:952-953(1962); Glauert et al., Nature, 196:953-955 (1962)). […] The dose-response experiments previously used to determine the EC50 and approximate the MIC can also indicate if the saponins maybe toxic to C. elegans and potentially to mammalian cells.

Series [2] concerns C. albicans DAY185 hyphae. Nature of the series: in vitro hyphal inhibition in RPMI 1640. The class given is cell-based. The method, then: Caspofungin (Merck) served as a known antifungal compound control. In vitro hyphal inhibition was assessed by incubation of DAY185 in RPMI 1640 media at 37° C. After 48 hours the cultures were visually inspected for hyphal formation by microscopy. The ability of the antifungal compound A16, at either 2 or 4 μg/mL, to induce osmotic stress was assessed using DAY185 grown in a 96 well microtiter plate containing RPMI 1640 media and NaCl, ranging in concentrations from 0-2 M in 0.25 M increments. The growth of the fungus was measured spectrophotometrically after 48 hours of growth at 35° C.
C. albicans biofilms are composed of hyphae, pseudohyphae, yeast cells, and an extracellular matrix, where the hyphae play an integral role within this complex. In order to address the reduction in biofilm formation in the presence of saponins, we tested the ability of compound A16 to inhibit hyphae formation at various concentrations in RPMI.

Series [3] concerns C. albicans DAY185. Nature of the series: photodynamic inactivation (PDI) with photosensitizers. The class given is cell-based. The following applies: 4 μg/mL A16, 10 μM PEI-ce6. The procedure: The PS used were Rose Bengal (RB, Sigma-Aldrich, St. Louis, Mo.) and chlorin(e6) (ce6, Frontier Scientific, Logan, Utah). PEI-ce6 was synthesized as a covalent conjugate between polyethylenimine (MW range 10,000-25,000, an average of one ce6 per chain) and ce6 as described previously (Tegos et al., Antimicrob Agents Chemother, 50:1402-1410 (2006)). Stock solutions were prepared in water at a concentration of 2 mM and stored for a maximum of 2 weeks in the dark at 4° C. before use. Spectra of stock solutions of PS diluted 140- to 280-fold in methanol were recorded. A noncoherent light source with interchangeable fiber bundles (LC122; LumaCare, London, United Kingdom) was employed. Thirty-nanometer-band-pass filters at ranges of 540±15 nm for RB, and 660±15 nm for ce6 and PEI-ce6 were used. […]
Photodynamic inactivation utilizes a non-toxic dye, or photosensitizer (PS), which is able to generate reactive oxygen species, such as singlet oxygen and hydroxyl radical, in the presence of oxygen and low-intensity light of the correct wavelength to be absorbed by the PS ultimately producing toxic effects in microbial cells (Fuchs et al., Antimicrob Agents Chemother, 51:2929-2936 (2007)). […] The survival fraction and uptake (molecules/cell) of C. albicans was determined for PDI mediated by the 3 different PSs with or without A16 pre-incubation for various time periods ranging between 1-24 hours. […]

On to `CC1CC[C@@]2(OC1)O[C@H]1CC3C4C[C@@H](O)C5C[C@@H](O[C@@H]6O[C@H](CO)[C@H](O[C@@H]7O[C@H](CO)[C@@H](O)[C@H](O[C@@H]8OC[C@@H](O)[C@H](O)[C@H]8O)[C@H]7O[C@@H]7O[C@H](CO)[C@@H](O)[C@H](O)[C@H]7O)[C@H](O)[C@H]6O)[C@H](O)C[C@]5(C)C4CC[C@]3(C)[C@H]1[C@@H]2C` (stereo partly shown) [A16, Aginoside], for which the “toxicity to the nematode” value in series [1] is listed as “none of the concentrations used in the dose response experiment showed signs of toxicity”. Further, the hyphae formation result in series [2] (1 μg/mL) is “visible reduction in the number of hyphae”; in series [2] (2 μg/mL), “very few hyphae formed”. For the same molecule, the “killing by PEI-ce6 mediated PDI after pre-incubation with A16” value in series [3] is given as “does not change dramatically”.
